Experimental data: patent US20260125362A1, “TARGETED PROTEIN DEGRADATION OF PARP14 FOR USE IN THERAPY” (AbbVie Biotechnology Ltd, priority 2019, published 2026)

What was measured:
[1] = biological target: T1, catalytic domain of human PARP14 (Homo sapiens, UniProt Q460N5); test: Enzymatic assay for inhibition of PARP14 (DELFIA, auto-modification with biotin-NAD); assay type: biochemical; conditions: compounds corresponding to group Q
T1 construct: made in house; host or cells: Escherichia coli
T1 sequence (Q460N5 1611-1801): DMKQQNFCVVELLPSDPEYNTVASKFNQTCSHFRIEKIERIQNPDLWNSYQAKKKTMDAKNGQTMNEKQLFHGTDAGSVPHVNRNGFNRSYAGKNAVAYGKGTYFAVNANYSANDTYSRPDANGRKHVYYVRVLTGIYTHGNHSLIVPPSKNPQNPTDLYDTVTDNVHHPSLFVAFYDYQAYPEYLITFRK
Method: The catalytic domain of human PARP14 (residues 1611 to 1801, GenBank Accession No. NM_017554) was overexpressed in Escherichia coli cells. An N-teininal His-TEV fusion tag was used to purify the protein from cell lysates. The His-TEV tag was left on the protein for use in the enzymatic assay.
Enzymatic inhibition of PARP14 was measured using a dissociation-enhanced lanthanide fluorescence immunoassay (DELFIA) monitoring the auto-modification of PARP14 by biotinylated nicotinamide adenine dinucleotide (biotin-NAD), 1 μL of a dose response curve of each test compound was spotted in 384-well nickel-coated white microplates (Therno) using a Mosquito (TTP Labtech). Reactions were performed in a 50 p L volume by adding 40 μL of PARP14 in assay buffer (20 mM HEPES pH=8, 100 mM NaCl, 0.1% bovine serum albumin. 2 mM DTT and 0.002% Tween20), incubating with test compound at 25° C. for 30 min, then adding 10 μL of biotin-NA D (Biolog). The final concentrations of PARP14 and biotin-NAD are 50 nM and 3 μM, respectively. Reactions proceeded at 25° C. for 3 h, then were quenched with 5 μL of 10 mM unmodified nicotinamide adenine dinucleotide (Sigma-Aldrich). The quenched reactions were washed 3 times with 100 μL of TBST wash buffer (50 mM Tris-HCl, 150 mnM NaCl and 0.1% Tween20). Next, to the washed and dried plate was added 25 μL of DELFIA Europium-NI streptavidin (Perkin Elmer) diluted in DELFIA assay buffer (Perkin Elmer). After a 30 min incubation at 25° C., the plate was washed 5 times with TBST wash buffer. Finally, 25 μL of DELFIA enhancement solution was added. After a 5 min incubation the plate was read on an Envision platereader equipped with a LANCE/DELFIA top mirror (Perkin Elmer) using excitation of 340 nm and emission of 615 nm to measure the amount of Europium present in each well, informing on the amount of biotin-NAD that was transferred in the automodification reaction. Control wells containing a negative control of 2% DMSO vehicle or a positive control of 100 μM rucaparib were used to calculate the % inhibition as described below:
where ex615cmpd is the emission from the compound treated well, ex615min, is the emission from the rucaparib treated positive control well and ex615max is the emission from the DMSO treated negative control well.
The % inhibition values were plotted as a function of compound concentration and the following 4-parameter fit was applied to derive the IC50 values:
where top and bottom are normally allowed to float, but may be fixed at 100 or 0 respectively in a 3-parameter fit. The Hill Coefficient is normally allowed to float but may also be fixed at 1 in a 3-parameter fit. Y is the % inhibition and X is the compound concentration.

[2] = tested on: IL-10 production; test: Reduction of IL-10 production in IL-4 stimulated M2-like macrophages (ELISA); assay type: cell-based; conditions: IL-4 stimulated M2-like macrophages from human monocytes; 1, 0.1 or 0.01 μM
Method: Monocytes were isolated from peripheral human blood and cultured in the presence of M-CSF and the compound of Example 1 (at 1, 0.1 or 0.01 μM) for 72 h. M-CSF differentiates monocytes into M-0 macrophages. Subsequently medium was replaced with fresh medium containing IL-4 and the compound of Example 1 (at 1, 0.1 or 0.01 μM), and cells were incubated for another 48 h. Isolation of primary human monocytes from whole blood: Primary monocytes were isolated from whole blood (iSPECIMEN; 500 mL) collected from healthy donors. Blood was diluted at a 1:1 ratio with EasySep buffer (STEMCELL Technologies 20144) and layered onto lymphoprep (STEMCELL Technologies 07811) in SepMate tubes (STEMCELL Technologies 85450) for PBMC isolation according to the manufacturer's instructions. […] Cells were treated with the compound of Example 1 or DMSO on day 6 after seeding at 1 μmol/L, 0.1 μmol/L, and 0.01 μmol/L. IL-10 determination: Levels of IL-10 in the supernatants of human primary M2 macrophages were determined with the IL-10 ELISA kit (STEMCELL Technologies 02013) according to the manufacturer's instructions. Briefly, supernatants were collected at the indicated time point and depleted of any floating cells before being stored at −80° C. until ready to use. IL-10 concentrations were determined from the kit's IL-10 standard curve and normalized to total cell protein.

[3] = biological target: T2, PARP14 (Homo sapiens, UniProt Q460N5); test: PARP14 degradation assay (Western blot) in KYSE270 cells; assay type: cell-based; conditions: 24 h
T2 construct: endogenous in cells; host or cells: KYSE270
Method: KYSE270 cells were seeded at a density of […] in 6-well plates and incubated overnight. Once attached, cells were treated with the compounds of Examples 1-4 at increasing concentrations (0.001 μM, 0.01 μM, 0.1 μM, 1 μM, and 10 μM; 0.003 μM, 0.03 μM, 0.3 μM, and 3 μM were also evaluated for the compound of Example 1), or with DMSO for 24 h. Media was gently aspirated and cells washed 3 times with 2 mL of ice cold PBS while on ice. The PBS was completely aspirated and 75 μl freshly prepared lysis buffer (Thermo Fisher 78501) was added to cells before scraping into the buffer. Lysates were collected in microcentrifuge tubes and incubated on ice for 15 minutes. Lysates were centrifuged at 10,000 rpm for 15 min at 4° C. and supernatants collected into fresh microcentrifuge tubes. Protein concentration was measured using a reducing agent compatible with the Pierce BCA Protein Assay Kit (Thermo Fisher 23250). Samples were prepared in loading buffer (LI-COR 928-40004) containing 5% β-mercaptoethanol, and incubated at 95° C. for 5 min. Protein lysates were resolved on 4-12% Tris-Acetate gels in MOPS running buffer with 60 μg of protein per well. Western blot transfers were done with PVDF membranes (LI-COR Immobilon) with 20 volts for 14 minutes. Primary antibodies (PARP14: in house generated mouse antibody (15A6 LotIC), β-actin: D6A8 (8457)) were incubated at 1:1,000 dilution using the odyssey blocking buffer (LI-COR 927-50000) for 2 h at room temperature and detected with secondary antibody (LI-COR 926-68072, 926-32211). Mouse antibody 15A6 Lot1C was generated by immunizing with recombinant human PARP14 catalytic domain protein. After hybridoma fusion, the parental clones were screened for reactivity against PARP14 catalytic domain, which were then subcloned to generate monoclones including 15A6-1. Monoclonal supernatants were tested by Western blotting against THP-1 and THP-1 PARP14 KO cells to confirm reactivity. The PARP14 antibody was produced by culturing the 15A6-1 hybridoma monoclone in 1L of serum free media+2% low IgG FBS. […]

T2 sequence (Q460N5 whole entry): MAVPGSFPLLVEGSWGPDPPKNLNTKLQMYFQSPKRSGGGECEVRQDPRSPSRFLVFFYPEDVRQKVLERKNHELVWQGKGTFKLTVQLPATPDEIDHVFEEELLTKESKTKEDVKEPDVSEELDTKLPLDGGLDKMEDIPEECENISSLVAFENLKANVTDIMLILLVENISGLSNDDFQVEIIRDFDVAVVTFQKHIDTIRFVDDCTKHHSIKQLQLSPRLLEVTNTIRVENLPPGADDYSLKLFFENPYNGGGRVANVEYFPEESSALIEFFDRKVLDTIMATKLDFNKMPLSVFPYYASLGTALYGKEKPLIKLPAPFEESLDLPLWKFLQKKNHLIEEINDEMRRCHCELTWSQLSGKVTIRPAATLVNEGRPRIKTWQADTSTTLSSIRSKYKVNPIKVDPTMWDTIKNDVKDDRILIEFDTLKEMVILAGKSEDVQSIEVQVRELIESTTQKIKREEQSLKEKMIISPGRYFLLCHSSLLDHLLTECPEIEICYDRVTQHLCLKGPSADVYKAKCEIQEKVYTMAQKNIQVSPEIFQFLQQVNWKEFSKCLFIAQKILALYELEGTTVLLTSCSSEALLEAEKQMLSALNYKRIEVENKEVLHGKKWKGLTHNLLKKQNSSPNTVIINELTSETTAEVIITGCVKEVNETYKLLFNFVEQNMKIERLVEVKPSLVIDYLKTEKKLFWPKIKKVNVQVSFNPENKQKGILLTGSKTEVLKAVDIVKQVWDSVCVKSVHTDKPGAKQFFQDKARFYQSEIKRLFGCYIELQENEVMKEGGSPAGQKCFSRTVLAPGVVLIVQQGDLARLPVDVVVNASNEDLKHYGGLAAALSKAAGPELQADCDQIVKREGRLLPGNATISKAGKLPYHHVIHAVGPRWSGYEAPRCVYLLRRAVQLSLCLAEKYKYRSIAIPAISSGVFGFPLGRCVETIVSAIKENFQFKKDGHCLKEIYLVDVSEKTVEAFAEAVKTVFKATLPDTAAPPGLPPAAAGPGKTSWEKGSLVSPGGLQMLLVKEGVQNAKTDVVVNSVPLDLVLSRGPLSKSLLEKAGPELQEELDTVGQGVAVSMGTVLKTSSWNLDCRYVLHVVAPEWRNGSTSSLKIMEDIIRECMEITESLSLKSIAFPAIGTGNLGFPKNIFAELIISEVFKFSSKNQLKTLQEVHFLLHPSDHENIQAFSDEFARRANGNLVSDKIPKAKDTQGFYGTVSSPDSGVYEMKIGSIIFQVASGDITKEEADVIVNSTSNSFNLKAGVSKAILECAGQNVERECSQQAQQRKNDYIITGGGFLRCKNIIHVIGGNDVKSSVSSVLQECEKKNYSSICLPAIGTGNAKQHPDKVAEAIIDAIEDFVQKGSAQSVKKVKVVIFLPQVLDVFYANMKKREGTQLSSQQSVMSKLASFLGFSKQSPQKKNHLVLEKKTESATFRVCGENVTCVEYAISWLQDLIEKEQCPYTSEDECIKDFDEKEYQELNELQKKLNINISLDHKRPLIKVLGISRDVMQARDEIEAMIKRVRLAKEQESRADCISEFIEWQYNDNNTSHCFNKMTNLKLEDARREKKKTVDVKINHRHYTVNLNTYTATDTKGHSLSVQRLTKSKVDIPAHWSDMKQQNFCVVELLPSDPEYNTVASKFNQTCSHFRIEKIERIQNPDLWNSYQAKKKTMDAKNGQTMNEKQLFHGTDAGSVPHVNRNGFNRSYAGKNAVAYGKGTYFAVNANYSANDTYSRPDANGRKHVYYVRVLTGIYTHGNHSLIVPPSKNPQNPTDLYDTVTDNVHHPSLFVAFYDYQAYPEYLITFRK

Row | IC50 [1] [µM] | hook effect at higher concentrations (PARP14 degradation) [3] | SMILES | IL-10 production (IL-10 levels in tissue culture supernatant, ELISA) [2]
1 | < 1 |  | O=c1[nH]c(CSC2CCNCC2)nc2cc(NC3CCCC3)cc(F)c12 | 
2 | < 1 |  | O=c1[nH]c(CSC2CCC(O)CC2)nc2cc(OCC3CCCOC3)cc(F)c12 (centres unmarked) | 
3 | < 1 |  | O=c1[nH]c(CS[C@H]2CC[C@H](O)CC2)nc2cc(OCC3CCOCC3)cc(F)c12 | 
4 | < 1 |  | O=c1[nH]c(CS[C@H]2CC[C@@H](O)CC2)nc2cc(OCC3CCOCC3)cc(F)c12 | 
5 |  | amelioration of efficacy | O=C(CN1CCC(SCc2nc3cc(NC4CCCC4)cc(F)c3c(=O)[nH]2)CC1)NCCCCCCNc1cccc2c1C(=O)N(C1CCC(=O)NC1=O)C2=O.O=C(O)C(F)(F)F (centres unmarked) [Example 1, 2-(4-(((7-(Cyclopentylamino)-5-fluoro-4-oxo-3,4-dihydroquinazolin-2-yl)methyl)thio)piperidin-1-yl)-N-(6-((2-(2,6-dioxopiperidin-3-yl)-1,3-dioxoisoindolin-4-yl)amino)hexyl)acetamide trifluoroacetate] | decreased IL-10 production
6 |  | amelioration of efficacy | O=C1CCC(N2C(=O)c3cccc(NCCCCCCCC(=O)N[C@H]4CC[C@H](SCc5nc6cc(OCC7CCOCC7)cc(F)c6c(=O)[nH]5)CC4)c3C2=O)C(=O)N1 (some centres unmarked) [Example 3, 8-((2-(2,6-dioxopiperidin-3-yl)-1,3-dioxoisoindolin-4-yl)amino)-N-((1r,4r)-4-(((5-fluoro-4-oxo-7-((tetrahydro-2H-pyran-4-yl)methoxy)-3,4-dihydroquinazolin-2-yl)methyl)thio)cyclohexyl)octanamide] | 
7 |  | amelioration of efficacy | O=C1CCC(N2C(=O)c3cccc(NCCC(=O)N[C@H]4CC[C@H](SCc5nc6cc(OCC7CCOCC7)cc(F)c6c(=O)[nH]5)CC4)c3C2=O)C(=O)N1 (some centres unmarked) [Example 4, 3-((2-(2,6-dioxopiperidin-3-yl)-1,3-dioxoisoindolin-4-yl)amino)-N-((1r,4r)-4-(((5-fluoro-4-oxo-7-((tetrahydro-2H-pyran-4-yl)methoxy)-3,4-dihydroquinazolin-2-yl)methyl)thio)cyclohexyl)propanamide] | 
